Test results: publication PMC6130618, “Bioactivity-guided isolation of anti-proliferative compounds from endemic Centaurea kilaea” (Pharmaceutical Biology, 2016)
Values after ≈ are worked out from the molar mass of the structure shown. Like-named read-outs stand apart in the source and are kept apart here.

Assays:
[1] = system: Hela (cervix adenocarcinoma); assay: MTT anti-proliferative assay, Hela; format: cell-based; conditions: Homo sapiens, 48 h, 0.5–50 μg/mL, mean ± SD, read-out: Cytotoxic activity IC50, Hela
Description: (§1) Anti-proliferative activity of compounds (0.5–50 μg/mL) against three human cancer cell lines were carried out by MTT test as specified in our previous study (Sen et al. [2015]). Compounds were tested for their cytotoxic activities. Cell viability and cytotoxic activity profile of the compounds were analyzed using the MTT assay (Mosman 1983; Woerdenbag et al. [1986]; Beekman et al. [1997]). MTT is cleaved to formazan by the ‘succinate-tetrazolium reductase’ system (EC 1.3.99.1) which belongs to the mitochondrial respiratory chain and is active only in viable cells. Different cell lines were used for the determination of cytotoxic activity [HeLa; (ATCC®, CCL- 2™), MCF-7 (ATCC®, HTB-22™), PC-3; (ATCC®, CRL-1435™)]. The cells were cultured with DMEM (Dulbecco’s Modified Eagle’s Medium) supplemented with 10% FBS (Foetal bovine serum), 1% L-glutamine and antibiotic solutions (penicillin–streptomycin–amphotericin).
(§2) In vitro cytotoxicity test was done by the method of modified Woerdenbag et al. ([1986]). The MTT metabolic assay was carried out with cells seeded at a density of 1 × 10^4 cells/well in 96-well flat-bottom cell culture plates with 100 μL of opti-MEM and 24–48 h incubation at 37 °C, 5% CO2. The following day, media was aspirated and the compounds were dissolved in DMSO and diluted with medium before they were added to the cell cultures at different concentrations. Cells were incubated for 48 h at 37 °C, 5% CO2. After the incubation period, 10 μL of the MTT labelling reagent [final concentration […] (Cell proliferation kit MTT, Roche, Germany)] was added to each well. The cultures were incubated for 4–12 h in a humidified atmosphere (e.g., 37 °C, 5% CO2) and 100 μL of the solubilization buffer was added into each well. The plate was allowed to stand overnight in the incubator in a humidified atmosphere (e.g., 37 °C, 5% CO2), the formazan precipitates were solubilized. Absorbance of the formazan product was measured spectrophotometrically at 550 and 690 nm.

[2] = system: PC-3 (prostate adenocarcinoma); assay: MTT anti-proliferative assay, PC-3; format: cell-based; conditions: Homo sapiens; PC-3, MCF-7 excluded; PC-3, MTT, 48 h, 0.5–50 μg/mL, mean ± SD; read-out: Cytotoxic activity IC50, PC-3
Description: as §1, §2

[3] = system: MCF-7 (breast adenocarcinoma); assay: MTT anti-proliferative assay, MCF-7; format: cell-based; conditions: Homo sapiens, MCF7; MCF-7, MTT, 48 h, 0.5–50 μg/mL, mean ± SD; read-out: Cytotoxic activity IC50, MCF-7
Description: as §1, §2

[4] = MTT cytotoxicity assay, normal cell line L-929; format: cell-based; conditions: L-929 mouse fibroblast cells (normal cell line), L-929 normal mouse fibroblast, 0.5–50 μg/mL, mean ± SD, read-out: Cytotoxic activity IC50, L-929
Description: [Worded in the source for another cell line; this cell line is reported under the same test.] as §1, §2

MCF-7 cell lines = system: MCF-7 cell lines; parameters: method as in Bruno et al. [2005]; Csapi et al. [2010]; conditions: ref Bruno et al. [2005], Csapi et al. [2010], cited from earlier work; for Activity on MCF-7 cell lines: same value converted
[5] = system: human malignant melanoma (SK-MEL) cells; parameters: method as in Erel et al. ([2011]); conditions: ref Erel et al. ([2011]); cited from earlier work
[6] = system: human ductal carcinoma (BT-549) cells; parameters: method as in Erel et al. ([2011]); conditions: ref Erel et al. ([2011]); cited from earlier work

Q: What does the source list for `COc1ccc(-c2cc(=O)c3c(O)c(OC)c(OC)cc3o2)cc1OC` [3′-O-Methyl eupatorin]?
A: IC50 [1]: > 50 µg/mL; IC50 [2]: > 50 µg/mL; IC50 [3]: > 50 µg/mL; IC50 at 48 h [4]: > 50 µg/mL

Q: With `O=c1cc(-c2ccc(O)cc2)oc2cc(O)cc(O)c12` [Apigenin] as the molecule, how does the IC50 [1] read?
A: The IC50 was > 50 µg/mL.

Q: And the IC50 [2]?
A: The IC50 was 44.13 ± 0.33 µg/mL (≈ 163 µM).

Q: And the IC50 [3]?
A: Its IC50 is > 50 µg/mL.

Q: And the IC50 at 48 h [4]?
A: The IC50 at 48 h was > 50 µg/mL.

Q: What does the source list for `COc1cc2oc(-c3ccc(O)cc3)cc(=O)c2c(O)c1OC` [Cirsimaritin]?
A: IC50 [1]: > 50 µg/mL; IC50 [2]: 4.3 ± 1.55 µg/mL (≈ 13.7 µM); IC50 [3]: > 50 µg/mL; IC50 at 48 h [4]: > 50 µg/mL

Q: For `C=C1C(=O)O[C@@H]2/C=C(\CO)CC/C=C(\C)C[C@H](OC(=O)C(=C)[C@@H](O)CO)[C@@H]12` [Cnicin], which “Activity on MCF-7 cell lines” value (MCF-7 cell lines; another study) is on record?
A: The value was 6.37 µg/mL.

Q: What about the IC50 (MCF-7 cell lines; another study) of the same molecule?
A: Its IC50 is 16.8 µM.

Q: What about the “Activity on MCF-7 cell lines” value (MCF-7 cell lines; previous study) of the same molecule?
A: Its value is 1.59 µg/mL.

Q: What about the IC50 (MCF-7 cell lines; previous study) of the same molecule?
A: The IC50 was 4.2 µM.

Q: What about the IC50 [1] of the same molecule?
A: The IC50 was > 50 µg/mL.

Q: What about the IC50 [2] of the same molecule?
A: Its IC50 is 31.5 ± 0.71 µg/mL (≈ 83.3 µM).

Q: What about the IC50 [3] of the same molecule?
A: Its IC50 is 3.25 ± 0.03 µg/mL (≈ 8.59 µM).

Q: And the “Cytotoxic effect, SK-MEL” value [5]?
A: The value was “cytotoxic effect”.

Q: What about the IC50 at 48 h [4] of the same molecule?
A: The IC50 at 48 h was > 50 µg/mL.

Q: And the “Cytotoxic effect, BT-549” value [6]?
A: Its value is “cytotoxic effect”.

Q: For `C=C[C@]1(C)C[C@H](O)[C@H]2C(=C)C(=O)O[C@@H]2[C@H]1C(=C)CO` [Dehydromelitensin], which IC50 [1] is on record?
A: Its IC50 is > 50 µg/mL.

Q: And the IC50 [2]?
A: The IC50 was 25 ± 0.44 µg/mL (≈ 94.6 µM).

Q: And the IC50 [3]?
A: The IC50 was 28.9 ± 0.95 µg/mL (≈ 110 µM).

Q: And the IC50 at 48 h [4]?
A: The IC50 at 48 h was > 50 µg/mL.

Q: Which IC50 [1] does the source give for `COc1ccc(-c2cc(=O)c3c(O)c(OC)c(OC)cc3o2)cc1O` [Eupatorin] here?
A: The IC50 was > 50 µg/mL.

Q: What about the IC50 [2] of the same molecule?
A: Its IC50 is 35.69 ± 0.3 µg/mL (≈ 104 µM).

Q: And the IC50 [3]?
A: The IC50 was > 50 µg/mL.

Q: What about the IC50 at 48 h [4] of the same molecule?
A: Its IC50 at 48 h is > 50 µg/mL.

Q: Which IC50 [1] does the source give for `COc1cc(-c2cc(=O)c3c(O)c(OC)c(O)cc3o2)ccc1O` [Jaceosidin] here?
A: Its IC50 is > 50 µg/mL.

Q: What about the IC50 [2] of the same molecule?
A: Its IC50 is > 50 µg/mL.

Q: And the IC50 [3]?
A: Its IC50 is > 50 µg/mL.

Q: And the IC50 at 48 h [4]?
A: The IC50 at 48 h was > 50 µg/mL.

Q: Which IC50 [1] does the source give for `CC1(C)CC[C@]2(C(=O)O)CC[C@]3(C)C(=CC[C@@H]4[C@@]5(C)CC[C@H](O)C(C)(C)[C@@H]5CC[C@]43C)[C@@H]2C1` [Oleanolic acid] here?
A: The IC50 was > 50 µg/mL.

Q: And the IC50 [2]?
A: The IC50 was 45.38 ± 0.42 µg/mL (≈ 99.4 µM).

Q: What about the IC50 [3] of the same molecule?
A: The IC50 was > 50 µg/mL.

Q: What about the IC50 at 48 h [4] of the same molecule?
A: Its IC50 at 48 h is > 50 µg/mL.

Q: For `COc1ccc(-c2cc(=O)c3c(O)c(OC)c(O)cc3o2)cc1` [Pectolinarigenin], which IC50 [1] is on record?
A: Its IC50 is > 50 µg/mL.

Q: What about the IC50 [2] of the same molecule?
A: The IC50 was > 50 µg/mL.

Q: What about the IC50 [3] of the same molecule?
A: Its IC50 is 35.5 ± 2.7 µg/mL (≈ 113 µM).

Q: And the IC50 at 48 h [4]?
A: Its IC50 at 48 h is > 50 µg/mL.

Q: For `COc1ccc(-c2cc(=O)c3c(O)c(OC)c(OC)cc3o2)cc1` [Salvigenin], which IC50 [1] is on record?
A: Its IC50 is > 50 µg/mL.

Q: What about the IC50 [2] of the same molecule?
A: Its IC50 is > 50 µg/mL.

Q: What about the IC50 [3] of the same molecule?
A: The IC50 was > 50 µg/mL.

Q: And the IC50 at 48 h [4]?
A: Its IC50 at 48 h is > 50 µg/mL.

Q: What does the source list for `C=C1CC[C@]2(C)CC[C@]3(C)[C@H](CC[C@@H]4[C@@]5(C)CC[C@H](O)C(C)(C)[C@@H]5CC[C@]43C)[C@H]2[C@@H]1C` [Taraxasterol]?
A: IC50 [1]: > 50 µg/mL; IC50 [2]: > 50 µg/mL; IC50 [3]: > 50 µg/mL; IC50 at 48 h [4]: > 50 µg/mL
